A short description of the test: Antagonist activity against CXCR4 in human SUP-T1 cells assessed as inhibition of SDF-1alpha-induced cell migration preincubated with cells for 30 mins followed by incubation with SDF-1alpha for 3 hrs by CellTiter-96 reagent based transwell assay.

Consider `CC(C)C[C@@H](N)C(=O)NCC(=O)N[C@H](C)C(=O)N[C@H](CO)C(=O)N[C@H](Cc1c[nH]c2ccccc12)C(=O)N[C@H](Cc1cnc[nH]1)C(=O)N[C@H](CCCNC(=N)N)C(=O)N1CCC[C@@H]1C(=O)N[C@H](CC(=O)O)C(=O)N[C@H](CCCCN)C(=O)N[C@H](CCCCN)C(=O)N[C@H](CCCNC(=N)N)C(=O)N(CCCCCC(=O)O)[C@@H](CCCCN)C(=O)N[C@@H](CCCNC(=N)N)C(=O)N[C@@H](CCCCN)C(=O)N[C@@H](CCC(N)=O)C(=O)N[C@@H](CCCNC(=N)N)C(=O)NCC(=O)N1CCC[C@H]1C(=O)NCC(=O)N[C@@H](CCCNC(=N)N)C(=O)N[C@@H](C)C(=O)N[C@@H](Cc1ccccc1)C(N)=O`, for which the IC50 amounted to 6.08 µM.
The value for `CC(C)C[C@@H](N)C(=O)NCC(=O)N[C@H](C)C(=O)N[C@H](CO)C(=O)N[C@H](Cc1c[nH]c2ccccc12)C(=O)N[C@H](Cc1cnc[nH]1)C(=O)N[C@H](CCCNC(=N)N)C(=O)N1CCC[C@@H]1C(=O)N[C@H](CC(=O)O)C(=O)N[C@H](CCCCN)C(=O)N[C@H](CCCCN)C(=O)N[C@H](CCCNC(=N)N)C(=O)N(CCCCCC(=O)O)[C@H](CCCCN)C(=O)N[C@H](CCCNC(=N)N)C(=O)N[C@H](CCCCN)C(=O)N[C@H](CCC(N)=O)C(=O)N[C@H](CCCNC(=N)N)C(=O)NCC(=O)N1CCC[C@@H]1C(=O)NCC(=O)N[C@H](CCCNC(=N)N)C(=O)N[C@H](C)C(=O)N[C@H](Cc1ccccc1)C(N)=O` was 0.87 µM.

Usually IC50 stands for the concentration that gives 50% inhibition.

Values taken from BindingDB's records for PubMed 36270088 (n/a, 2022).
